Like-named read-outs stand apart in the source and are kept apart here.
Key:
CT26 tumors = assay: CT26 tumor after single dose intratumoral treatment, H&E stain and CD31 IHC; type: in vivo, mouse; conditions: 24h, all dose levels (47.2 μg, 141.6 μg, and 472 μg)
Method: Method. Each 6-8 weeks old female Balb/c mouse was implanted with 3×10^5 CT26 mouse colon cancer cells in one flank for tumor development. When the average tumor volume reached 95 mm^3, 21 mice were randomized into different groups and were treated via a single IT injection (20 uL) according to the group assignment (different dose and treatment duration) in the table below. Tumors were harvested at 1h, 7h, or 24h post IT injection, and then fixed and processed for paraffin embedding.
Paraffin blocks were sectioned into […] sections using Leica RM2235 microtome. One section was stained for Hematoxylin-Eosin (H&E) using Leica ST5020-CV5030 stainer integrated workstation according to the Manufacture's procedure. Photos were taken using Nikon DS-Ri2. Another section was processed for IHC staining with the CD31 antibody (BD, Cat #550274) at 1:10 dilution. The stained slides were scanned using Leica Aperio VERSA 8 and the images were analyzed using HALO image analysis software system (Indica Labs).

C1b domain of human PKCδ = biological target: T1, C1b domain of human PKCδ (Homo sapiens, UniProt Q05655); assay: biochemical; type: binding; conditions: 3H-PDBu competition
T1 construct: Genes encoding C1b domains of human PKCα, δ, ε, θ, and PKD1 (PKCμ) were synthesized; made in house; host or cells: E. coli BL21(DE3)
T1 sequence (Q05655 230-280 limits assumed): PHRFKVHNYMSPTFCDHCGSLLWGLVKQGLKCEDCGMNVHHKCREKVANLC
Method: (§1) Compounds described in this disclosure were tested for binding affinity to C1b domain of PKC isoforms. Compound binding affinity to C1b domain of PKC isoforms was derived from competitive binding assay using radioactive tracer ^3H-PDBu and recombinant GST-C1b or full-length of human PKC proteins based on modified procedures from Methods in Molecular Biology, vol.
(§2) Genes encoding C1b domains of human PKCα, δ, ε, θ, and PKD1 (PKCμ) were synthesized and inserted into pGEX-2TK or pGEX-4T1 vectors for expression and production of GST-C1b proteins in E. coli BL21(DE3) via IPTG induction. The target proteins were purified by glutathione sepharose 4B and followed by ion exchange chromatography if needed to achieve purity >70%. Aliquots of the purified proteins were stored at −80 degree for binding assay (storage buffer: 20 mM Tris pH 8.0, 200 mM NaCl, 10% glycerol, 1 mM DTT).
(§3) The plate was incubated at 37° C. on a shaker at 300 rpm for 10 minutes and then put on ice for 20 minutes. […] The bottom of the filter plate was sealed and 50 μL of MicroScint-20 (PerkinElmer) cocktail was added to each well. ^3H-PDBu trapped in each well was counted using PerkinElmer MicroBeta2 Reader. Data were analyzed using GraphPad Prism5 with the model “log(inhibitor) vs. response-variable slope” to fit the IC50, and then IC50 was transformed to Ki using Cheng-Prusoff equation: Ki=IC50/(1+added radio ligand/Kd). Kd is the binding affinity of each protein preparation to ^3H-PDBu, determined experimentally.

C1b domain of human PKCε = biological target: T2, C1b domain of human PKCε (Homo sapiens, UniProt Q02156); assay: biochemical; type: binding; conditions: 3H-PDBu competition
T2 construct: Genes encoding C1b domains of human PKCα, δ, ε, θ, and PKD1 (PKCμ) were synthesized; made in house; host or cells: E. coli BL21(DE3)
T2 sequence (Q02156 242-292 limits assumed): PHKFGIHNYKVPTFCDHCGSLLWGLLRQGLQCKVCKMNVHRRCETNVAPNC
Method: as §1, §2, §3

C1b domain of human PKCθ = biological target: T3, C1b domain of human PKCθ (Homo sapiens, UniProt Q04759); assay: biochemical; type: binding; conditions: 3H-PDBu competition
T3 construct: Genes encoding C1b domains of human PKCα, δ, ε, θ, and PKD1 (PKCμ) were synthesized; made in house; host or cells: E. coli BL21(DE3)
T3 sequence (Q04759 231-281 limits assumed): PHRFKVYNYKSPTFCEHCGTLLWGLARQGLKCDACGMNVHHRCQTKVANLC
Method: as §1, §2, §3

A549 cell line = assay: Proliferation of A549 (CellTiter Glo); type: cell-based; conditions: read-out: IC50 μM (A549 Cell Line)
Method: (§4) The diterpenoid compounds were tested in A549, a non-small cell lung cancer cell line harboring a K-Ras activating mutation. Briefly, A549 cells at a density of 1,000 cells/well were seeded in 96-well plates and incubated at 37° C. for 24 hours. A series of different concentrations of compound stocks (500×) were prepared by 3-fold serial dilution in DMSO. These compounds were further diluted in culture media and then added to cells so that the final DMSO concentration was not exceeding 0.25%. After 96 hours of incubation, 50 μL of CellTiter Glo reagent (Promega) was added to each well and luminescence was measured after 10 minutes using EnVision (PerkinElmer). Luminescence from cells treated with DMSO alone was set as Max and % of inhibition was calculated as follows: Inhibition %=(Max-Sample value)/Max×100. Data was analyzed using XL-fit software (ID Business Solutions Ltd.) and IC50, relative IC50, and % of top inhibition was calculated. Some of the compounds in this disclosure were very potent in blocking proliferation of A549 lung cancer cells at low nM range. In addition, potency of inhibiting A549 proliferation correlated well with its binding affinity to PKCs for this series of compounds. In other words, higher affinity binders had stronger inhibitory effects on A549 proliferation. This further support the notion that activation, rather than inhibition, of certain PKC isoforms is required to block proliferation of cancer cells, some of which may harbor K-Ras mutations. This is in sharp contrast to previous literature and common belief that inhibition of PKC is necessary to block cancer cell growth (Kang, 2014, New Journal of Science, 2014:1-36). Data presented here is in agreement with recent findings that many loss-of-function but not gain-of-function mutations of PKC isoforms have been identified in many human cancers (Antal et al., 2015, Cell, 160:489-502).

HL-60 (Leukemia) = assay: Proliferation of HL-60; type: cell-based
Method: as §4
(§5) The compounds in this disclosure were tested for their potency in blocking proliferation of a few other cancer cells lines, including K-Ras mutant pancreatic cell lines Panc2.13 and KP-4, leukemia cell line HL-60, and lymphoma cell lines Namalwa and Mino. Similar procedures as in Example 67 were followed. Initial cell numbers seeded in 96-well plates were different for different cell lines: 3000 cells/well for Panc2.13; 800-1000 cells/well for KP-4; 5000 cells/well for HL-60; 5000-10000 cells/well for Namalwa and Mino. A ratio of (IC50 of K101)/(IC50 of compound) (data in parenthesis in Table 5) was used to normalize the compound potency from different assay batches to a common comparator K101.

Namalwa (Lymphoma) = assay: Proliferation of Namalwa; type: cell-based
Method: as §4, §5

Mino (Lymphoma) = assay: Proliferation of Mino; type: cell-based
Method: as §4, §5

[1] = tested on: NFκB-driven transcription in HeLa-NFκB luciferase reporter cell line; assay: NFκB luciferase reporter assay; conditions: Homo sapiens, HeLa, 16 h, read-out: NFκB-luc HeLa cells EC50 (μM)
Method: A HeLa-NFκB luciferase reporter cell line (Wuxi Biology) was used to assess a group of PKC activator compounds for their ability to activate NFκB-driven transcription. […] One set of cells was assayed for luciferase activity (Promega, Cat #E1500) and the other set was assayed to determine the number of viable cells (for cell number normalization) using CellTiter-Glo (CTG) kit (Promega, Cat #G7570) according to manufacture's procedures. Normalized data (luciferase value/CTG value) were analyzed using GraphPad Prism5 to calculate EC50 for each compound (see Table 8).
To assess if activation of PKC is required for these compounds to activate NFκB, several PKC inhibitors including broad-spectrum and conventional PKC inhibitors were tested. In the assay described above, PKC inhibitors were added at the same time as the PKC activator compounds.

[2] = biological target: T4, C1b domain of human PKD1 (PKCμ) (Homo sapiens, UniProt Q15139); assay: Competitive 3H-PDBu binding assay, C1b domain of PKD1 (PKCμ); conditions: 3H-PDBu competition
T4 construct: Genes encoding C1b domains of human PKCα, δ, ε, θ, and PKD1 (PKCμ) were synthesized; made in house; host or cells: E. coli BL21(DE3)
T4 sequence (Q15139 270-320 limits assumed): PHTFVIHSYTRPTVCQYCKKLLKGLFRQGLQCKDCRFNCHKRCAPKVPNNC
Method: as §1, §2, §3

Compound	Ki (C1b domain of human PKCδ) [nM]	Ki (C1b domain of human PKCε) [nM]	Ki (C1b domain of human PKCθ) [nM]	IC50 (A549 cell line; Homo sapiens, A549, 96 h) [µM]	Ki [2] [nM]	other results
CC1=C[C@H]2[C@@]3(O)[C@H](C)C[C@]4(OC(=O)[C@H](N)CCCCCCc5ccccc5)[C@H]([C@@H]3C=C(COC(=O)[C@@H](N)C(C)C)C[C@]2(O)C1=O)C4(C)C						reduction of CD31 density, on average, compared with the vehicle control (CT26 tumors): > 50%
CC1=C[C@H]2[C@@]3(O)[C@H](C)C[C@]4(OC(=O)[C@H](N)C(C)(C)c5ccc(C(F)(F)F)cc5)[C@H]([C@@H]3C=C(CO)C[C@]2(O)C1=O)C4(C)C	10 to 30	10 to 30	10 to 30	0.2 to 0.6		ratio (IC50 of K101)/(IC50 of compound) HL-60 (HL-60 (Leukemia)): 2.75; IC50 (HL-60 (Leukemia); Homo sapiens, HL-60, read-out: IC50 HL-60 (Leukemia)): 100 to 200 nM; ratio (IC50 of K101)/(IC50 of compound) Namalwa (Namalwa (Lymphoma)): 0.49; IC50 (Namalwa (Lymphoma); read-out: IC50 Namalwa (Lymphoma)): 100 to 200 nM; ratio (IC50 of K101)/(IC50 of compound) Mino (Mino (Lymphoma)): 3.88; IC50 (Mino (Lymphoma); Homo sapiens, MINO, read-out: IC50 Mino (Lymphoma)): 10 to 30 nM; EC50 [1]: 0.1 to 0.2 µM
CC1=C[C@H]2[C@@]3(O)[C@H](C)C[C@]4(OC(=O)[C@H](N)CCCCCCc5ccc(C(F)(F)F)cc5)[C@H]([C@@H]3C=C(CO)C[C@]2(O)C1=O)C4(C)C		60 to 100		0.06 to 0.1	10 to 30	
CC1=C[C@H]2[C@@]3(O)[C@H](C)C[C@]4(OC(=O)[C@H](N)CCCCCCCCc5ccccc5)[C@H]([C@@H]3C=C(CO)C[C@]2(O)C1=O)C4(C)C	10 to 30	10 to 30	10 to 30	0.01 to 0.03		
CC1=C[C@H]2[C@@]3(O)[C@H](C)C[C@]4(OC(=O)[C@H](N)CCCCCCc5ccc(C(F)F)cc5)[C@H]([C@@H]3C=C(CO)C[C@]2(O)C1=O)C4(C)C	10 to 30			0.1 to 0.2	10 to 30	
CC1=C[C@H]2[C@@]3(O)[C@H](C)C[C@]4(OC(=O)[C@@H](N)CCCCCCc5ccc(C(F)F)cc5)[C@H]([C@@H]3C=C(CO)C[C@]2(O)C1=O)C4(C)C	10 to 30		10 to 30	0.1 to 0.2		
CCCCCCCCCCCCCC(=O)O[C@@H]1[C@@H](C)[C@@]2(O)[C@@H](C=C(CO)C[C@]3(O)C(=O)C(C)=C[C@@H]23)[C@@H]2C(C)(C)[C@]12OC(C)=O [Compound K103, 12-O-Tetradecanoylphorbol-13-acetate, reference compound]	< 5	< 5	< 5		< 5	IC50 (A549 cell line; 96 hours, CellTiter Glo): < 0.01 µM

Source: patent publication US20240197666A1, “DITERPENOID COMPOUNDS THAT ACT ON PROTEIN KINASE C (PKC)” (K-Gen Therapeutics, Inc., priority 2021, published 2024)
